Positions of bridges follow the written chain, without caps; N, C: chain ends. No end group written: not given here.
Tests used:
[1] = tested on: AMPAr currents in hippocampal CA1 pyramidal neurons; assay: whole-cell patch-clamp, isolated AMPAr EPSCs evoked by Schaffer collateral stimulation (series 2); assay type: cell-based, C57Bl6/J mice; settings: after 10 min wash-out of NX218 250 μg/mL (T30); mean of 10 neurons
Description: Twelve (C57Bl6/J) male mice 4-5 weeks-old were obtained from Charles River, France and housed in an animal facility. Animal care was compliant with national and local Ethics committee recommendations. Sagittal hippocampal brain slices were obtained using standard brain slicing methods (approximately 6 slices per mouse) (Knobloch et al. 2007). Mice were anesthetized with isoflurane and then decapitated. Brain was dissected out of the cranium and immediately immersed in ice-cold freshly prepared aCSF containing: 124 mM NaCl, 3.75 mM KCl, 2 mM MgSO4, 2 mM CaCl2, 26.5 mM NaHCO3, 1.25 mM NaH2PO4, 10 mM glucose, continuously oxygenated (pH=7.4) for a total duration of 3-4 minutes. Acute slices (350 μm thick) were prepared using a vibratome (VT 1000S; Leica Microsystems, Bannockburn, IL). Sections were incubated in standard aCSF at room temperature for at least 1 h before recordings. […]
The signal was amplified with an Axopatch 200B amplifier (Molecular Devices, Union City, CA), digitized by a Digidata 1550 interface (Molecular Devices) and […]. Recordings were acquired using Clampex (Molecular Devices) and analyzed with Clampfit (Molecular Devices). […]

[2] = tested on: basal excitatory synaptic transmission at CA3-CA1 synapses; assay: fEPSP input-output (I/O) recordings in CA1 of mouse hippocampal slices; assay type: cell-based, C57Bl6/J mice; settings: NX218 250 μg/mL; for Normalized fEPSP slope: normalized to max slope in vehicle, mean of 10 slices
Experimental: Comparison of postsynaptic responses in control versus NX218 peptide conditions were assessed.
Five (C57Bl6/J) male mice 4-5 weeks-old were obtained from Charles River, France and housed in an animal facility. Animal care was compliant with national and local Ethics committee recommendations. Ten Sagittal hippocampal brain slices (2 per mouse) were obtained using standard brain slicing methods (Knobloch et al. 2007). Mice were anesthetized with 5% isoflurane and then decapitated. Brain was dissected out of the cranium and immediately immersed in ice-cold freshly prepared artificial cerebrospinal fluid (aCSF) containing: 124 mM NaCl, 3.75 mM KCl, 2 mM MgSO4, 2 mM CaCl2, 26.5 mM NaHCO3, 1.25 mM NaH2PO4, 10 mM glucose, continuously oxygenated (95% O2, 5% CO2) (pH=7.4) for a total duration of 3-4 minutes. Acute slices (350 μm thick) were prepared using a vibratome (VT 1000S; Leica Microsystems, Bannockburn, IL). Sections were incubated in standard aCSF (124 mM NaCl, 3.75 mM KCl, 2 mM MgSO4, 2 mM CaCl2, 26.5 mM NaHCO3, 1.25 mM NaH2PO4, 10 mM glucose) at room temperature for at least 1 h before recordings.
For electrophysiological recordings, a single slice was placed in the recording chamber (room temperature), submerged and continuously superfused with gassed aCSF (95% O2, 5% CO2; pH=7.4) at a constant rate (2 mL min^−1) for the reminder of the experiment. Extracellular field excitatory postsynaptic potentials (fEPSPs) were recorded in the CA1 stratum radiatum using a glass micropipette filled with aCSF. fEPSPs were evoked by the electrical stimulation of Schaffer collateral-commissural pathway at 0.1 Hz (i.e., a single pulse every 10 s) with a glass stimulating electrode (borosilicate capillary glass with filament, standard wall; OD: 1.5 mm; ID: 0.86 mm; Length: 75 mm; ref: W3 30-0060 from Harvard Apparatus) placed in the stratum radiatum.
After 10 minutes of stabilization, basal synaptic transmission was assessed. […] This procedure was repeated 3 times, 30 seconds interval for each session. A single session final I/O curve was obtained by plotting the averaged rationalised slopes of fEPSPs as a function of the stimulation intensity.
The signal was amplified with an Axopatch 200B amplifier (Molecular Devices, Union City, CA) digitized by a Digidata 1322A interface (Axon Instruments, Molecular Devices, US) and sampled at 10 kHz. Recordings were acquired using Clampex (Molecular Devices) and analyzed with Clampfit (Molecular Devices).
All data was normalized from the fEPSP maximum slope recorded in control condition (during vehicle bath application). […] Potential outliers were identified for exclusion using the following criteria: >3 standard deviations away from the group mean in either direction.

Question: Which “Amplitude of evoked isolated AMPA excitatory postsynaptic currents” value [1] does the source give for “W-S-G-W-S-S-C-S-R-S-C-G [NX218] (WSGWSSCSRSCG; disulfide 7-11 (inferred))” here?
Answer: Its value is 153 pA.

Question: And the “change of basal excitatory synaptic transmission vs control condition (whole I/O curve)” value [2]?
Answer: The value was “statistical increase”.

Question: What about the “Normalized fEPSP slope” value ([2]; stimulation intensity 0 µA) of the same substance?
Answer: The value was 0.09%.

Question: And the “Normalized fEPSP slope” value ([2]; stimulation intensity 50 µA)?
Answer: Its value is 30.78%.

Question: What about the “Normalized fEPSP slope” value ([2]; stimulation intensity 100 µA) of the same substance?
Answer: The value was 71.26%.

Question: What about the “Normalized fEPSP slope” value ([2]; stimulation intensity 150 µA) of the same substance?
Answer: Its value is 110.51%.

Question: What about the “Normalized fEPSP slope” value ([2]; stimulation intensity 200 µA) of the same substance?
Answer: Its value is 134.44%.

Question: What about the “Normalized fEPSP slope” value ([2]; stimulation intensity 250 µA) of the same substance?
Answer: The value was 149.89%.

Question: And the “Normalized fEPSP slope” value ([2]; stimulation intensity 300 µA)?
Answer: The value was 156.80%.

Question: What about the “Normalized fEPSP slope” value ([2]; stimulation intensity 350 µA) of the same substance?
Answer: The value was 160.72%.

Question: What about the “Normalized fEPSP slope” value ([2]; stimulation intensity 400 µA) of the same substance?
Answer: Its value is 164.01%.

Question: What about the “Normalized fEPSP slope” value ([2]; stimulation intensity 450 µA) of the same substance?
Answer: Its value is 164.39%.

Question: What about the “Normalized fEPSP slope” value ([2]; stimulation intensity 500 µA) of the same substance?
Answer: Its value is 166.29%.

Question: What about the “Normalized fEPSP slope” value ([2]; stimulation intensity 550 µA) of the same substance?
Answer: The value was 167.00%.

Question: And the “Normalized fEPSP slope” value ([2]; stimulation intensity 600 µA)?
Answer: The value was 167.37%.

Question: What about the “Normalized fEPSP slope” value ([2]; stimulation intensity 650 µA) of the same substance?
Answer: Its value is 168.66%.

Question: And the “Normalized fEPSP slope” value ([2]; stimulation intensity 700 µA)?
Answer: The value was 169.65%.

Question: And the “Normalized fEPSP slope” value ([2]; stimulation intensity 750 µA)?
Answer: Its value is 169.89%.

Question: What about the “Normalized fEPSP slope” value ([2]; stimulation intensity 800 µA) of the same substance?
Answer: The value was 170.46%.

Question: What about the “Normalized fEPSP slope” value ([2]; stimulation intensity 850 µA) of the same substance?
Answer: Its value is 171.65%.

Reference: US20250177481A1, “SCO-spondin-derived polypeptides for enhancing synaptic transmission” (AXOLTIS PHARMA, priority 2021, published 2025)
